# From EP0006718A1, “1.2.4-Triazolidine-3.5-dione derivatives, process for their preparation and pharmaceutical compositions containing them” (BEECHAM GROUP PLC, priority 1978, dated 1980)
# Tests used:
# [1] = system: 5-hydroxy-tryptamine or histamine induced bronchoconstriction; experiment: Broncho-dilation activity: inhibition of induced bronchoconstriction (Konzett-Rossler preparation); format: in vivo; conditions: Cavia porcellus, iv; anaesthetised artificially respired guinea-pig; read-out: ED 50 value for inhibition of bronchoconstriction
# Description: The compound of Example 4 was examined for its ability to inhibit 5-hydroxy-tryptamine or histamine induced bron- choconstrictioh in the anaesthetised artifically respired guinea-pig (Konzett-Rossler preparation).
# [2] = system: indomethacin induced gastric damage; experiment: Anti-ulcer activity: inhibition of indomethacin induced gastric damage (method of Eleghe); format: in vivo; conditions: Rattus norvegicus, 30 minutes before 15mg/kg indomethacin s.c., rats sacrificed 4 hours later
# Protocol: Anti-ulcer activity of the compound of Example 4 was assessed by the inhibition of indomethacin induced gastric damage in the rat according to the method of Eleghe (1974) Israeli J. Med. Sci. 10. 1451. Rats were starved overnight given 15mg/kg indomethacin subcutaneously and sacrificed 4 hours later. Stomachs were reflated with n. saline, cut along the greater curvature pinned out and scored for gastric damage.
# Groups of 7 rats were used for each treatment and the test compound or vehicle was administered 30 minutes prior to giving the indomethacin. Varying doses of test compound were administered orally and control groups receiving vehicle only were set up simultaneously. Mean values for each treatment were obtained and the Mann Witney test applied for significance of difference between the values obtained with the treatments.
compound,measurement,setting,value
"Cn1c(=O)n(CCCCCCC(=O)O)n(CCC(C)(O)COc2ccccc2)c1=O (stereo not shown) [Example 4, 1-(6'-carboxyhexyl)-2-(3""-hydroxy-3""-methyl-4""-phenoxybutyl)-4-methyl'-1,2,4-triazolidine-3,5-dione]",ED50,[1],0.039 mg/kg
same,inhibition at 25 mg/kg,[2]; 25 mg/kg p.o.,56%
same,inhibition at 50 mg/kg,[2]; 50 mg/kg p.o.,50%
same,inhibition at 100 mg/kg,[2]; 100 mg/kg p.o.,92%
